Data from US5086045A, “Antitumor antibiotic” (Bristol-Myers Squibb Company, priority 1990, dated 1992).
Values after ≈ are worked out from the molar mass of the structure shown.

How the values were obtained:
P388 leukemia = assay: In vivo antitumor activity, P388 leukemia implanted iv, drug iv; parameters: species or system mouse;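 on % T/C: median survival time of treated over control mice times 100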;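 on T/C: median survival time of treated over control mice times 100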
Method: The in vivo antitumor activity of BMY-41339 was determined in the standard P388 mouse leukemia model. A summary of the experiments performed using BMY-41339 is provided below.
DBA/2 and (Balb/c × DBA/2)F1 (CDF1) hybrid mice were purchased from Charles River Breeding Co. (Wilmington, MA). They were provided food and water ad libitum.
The P388 murine ascites leukemia was maintained by weekly in vivo passage in DBA/2 mice.
Esperamicin A1 and BMY-41339 were dissolved in ethanol. Further dilutions were made with 0.9% NaCl (saline) until the ethanol concentration (v/v) was 10%. All administrations were made, therefore, in a 10% ethanol in saline vehicle. For ip injections, the concentration of compound was adjusted according to the average initial body weight of each group of mice to be injected such that the desired dose would be contained in a 0.5 ml injection volume. The same procedure was used for iv compound administration except the injection volume was 0.2 ml.
Antitumor experiments were initiated by implanting […] P388 leukemia cells either ip or iv into CDF1 mice. BMY-41339 and esperamicin A1 (included as a positive reference compound), were injected either ip in mice implanted ip with P388, or iv in mice implanted iv with P388 on Day 2 post-implant only Eight different dose levels of BMY-41339, at two-fold increments, were evaluated in each of the two experiments performed.
A % T/C value of ≥ 125 was considered indicative of activity in these models.

P. vulgaris A21559 = assay: Antibacterial activity (MIC), serial two-fold agar dilution; assay type: cell-based; details: Proteus vulgaris
Method: (§1) Antimicrobial activity of BMY-41339 was determined for a variety of bacteria by the serial two-fold agar dilution method.

P. aeruginosa A20235 = assay: as above; assay type: cell-based; details: Pseudomonas aeruginosa
Method: as §1

K. pneumoniae A9664 = assay: as above; assay type: cell-based; details: Klebsiella pneumoniae
Method: as §1

E. faecalis A25708 = assay: as above; assay type: cell-based; details: Enterococcus faecalis
Method: as §1

E. faecalis A25707 = assay: as above; assay type: cell-based; details: Enterococcus faecalis
Method: as §1

P. aeruginosa A21508 = assay: as above; assay type: cell-based; details: Pseudomonas aeruginosa
Method: as §1

S. aureus A24407 = assay: as above; assay type: cell-based; details: Staphylococcus aureus
Method: as §1

E. faecalis A20688 = assay: as above; assay type: cell-based; details: Enterococcus faecalis
Method: as §1

K. pneumoniae A20468 = assay: as above; assay type: cell-based; details: Klebsiella pneumoniae
Method: as §1

E. coli A20697 = assay: as above; assay type: cell-based; details: Escherichia coli
Method: as §1

S. aureus A9537 = assay: as above; assay type: cell-based; details: Staphylococcus aureus
Method: as §1

B. subtilis A9506-A = assay: as above; assay type: cell-based; details: Bacillus subtilis, A9506A
Method: as §1

E. coli A15119 = assay: as above; assay type: cell-based; details: Escherichia coli
Method: as §1

P. aeruginosa A9843 = assay: as above; assay type: cell-based; details: Pseudomonas aeruginosa
Method: as §1

S. aureus A20698 = assay: as above; assay type: cell-based; details: Staphylococcus aureus
Method: as §1

E. coli A9751 = assay: as above; assay type: cell-based; details: Escherichia coli
Method: as §1

[1] = Exp. 8102, iv, 0.025 mg/kg/dose
[2] = Exp. 8102, iv, same doses up to 3.2 μg/kg
[3] = Exp. 8109, iv, 0.025 mg/kg/dose

C=C(OC)C(=O)Nc1cc(OC)c(OC)cc1C(=O)OC1CC(OC2C(=O)C(NC(=O)OC)=C3C(=CCSSSSC)C2(O)C#CC=CC#CC3OC2OC(C)C(NOC3CC(O)C(SC)C(C)O3)C(O)C2OC2CC(OC)C(NC(C)C)CO2)OC(C)C1O (stereo not shown) [BMY-41339]
% T/C (P388 leukemia; [1]): 100% | Avg. wt. change on day 6 (P388 leukemia; [1]): 0.4 grams | Survivors on Day 5 (P388 leukemia; [1]): 6/6 | % T/C (P388 leukemia; Exp. 8102, iv, 0.05 mg/kg/dose): 100% | Avg. wt. change on day 6 (P388 leukemia; Exp. 8102, iv, 0.05 mg/kg/dose): 0.1 grams | Survivors on Day 5 (P388 leukemia; Exp. 8102, iv, 0.05 mg/kg/dose): 6/6 | % T/C (P388 leukemia; Exp. 8102, iv, 0.1 mg/kg/dose): 106% | Avg. wt. change on day 6 (P388 leukemia; Exp. 8102, iv, 0.1 mg/kg/dose): 0.4 grams | Survivors on Day 5 (P388 leukemia; Exp. 8102, iv, 0.1 mg/kg/dose): 6/6 | % T/C (P388 leukemia; Exp. 8102, iv, 0.2 mg/kg/dose): 100% | Avg. wt. change on day 6 (P388 leukemia; Exp. 8102, iv, 0.2 mg/kg/dose): -0.3 grams | Survivors on Day 5 (P388 leukemia; Exp. 8102, iv, 0.2 mg/kg/dose): 6/6 | % T/C (P388 leukemia; Exp. 8102, iv, 0.4 mg/kg/dose): 100% | Avg. wt. change on day 6 (P388 leukemia; Exp. 8102, iv, 0.4 mg/kg/dose): -0.4 grams | Survivors on Day 5 (P388 leukemia; Exp. 8102, iv, 0.4 mg/kg/dose): 6/6 | % T/C (P388 leukemia; Exp. 8102, iv, 0.8 mg/kg/dose): 100% | Avg. wt. change on day 6 (P388 leukemia; Exp. 8102, iv, 0.8 mg/kg/dose): -0.3 grams | Survivors on Day 5 (P388 leukemia; Exp. 8102, iv, 0.8 mg/kg/dose): 6/6 | % T/C (P388 leukemia; Exp. 8102, iv, 1.6 mg/kg/dose): 100% | Avg. wt. change on day 6 (P388 leukemia; Exp. 8102, iv, 1.6 mg/kg/dose): -0.1 grams | Survivors on Day 5 (P388 leukemia; Exp. 8102, iv, 1.6 mg/kg/dose): 6/6 | % T/C (P388 leukemia; Exp. 8102, iv, 3.2 mg/kg/dose): 113% | Avg. wt. change on day 6 (P388 leukemia; Exp. 8102, iv, 3.2 mg/kg/dose): -0.2 grams | Survivors on Day 5 (P388 leukemia; Exp. 8102, iv, 3.2 mg/kg/dose): 6/6 | effectiveness versus iv-implanted leukemia (P388 leukemia; [2]): not effective | maximum tolerated dose reached (P388 leukemia; [2]): no indication of having reached a maximum tolerated dose | T/C (P388 leukemia; Exp. 8109, iv, 16 μg/kg): 139% | % T/C (P388 leukemia; [3]): 100% | Avg. wt. change on day 6 (P388 leukemia; [3]): 0.4 grams | Survivors on Day 5 (P388 leukemia; [3]): 6/6 | T/C (P388 leukemia; Exp. 8109, iv, 32 μg/kg): 156% | % T/C (P388 leukemia; Exp. 8109, iv, 0.05 mg/kg/dose): 100% | Avg. wt. change on day 6 (P388 leukemia; Exp. 8109, iv, 0.05 mg/kg/dose): 0.1 grams | Survivors on Day 5 (P388 leukemia; Exp. 8109, iv, 0.05 mg/kg/dose): 6/6 | % T/C (P388 leukemia; Exp. 8109, iv, 0.1 mg/kg/dose): 106% | Avg. wt. change on day 6 (P388 leukemia; Exp. 8109, iv, 0.1 mg/kg/dose): 0.4 grams | Survivors on Day 5 (P388 leukemia; Exp. 8109, iv, 0.1 mg/kg/dose): 6/6 | % T/C (P388 leukemia; Exp. 8109, iv, 0.2 mg/kg/dose): 100% | Avg. wt. change on day 6 (P388 leukemia; Exp. 8109, iv, 0.2 mg/kg/dose): -0.3 grams | Survivors on Day 5 (P388 leukemia; Exp. 8109, iv, 0.2 mg/kg/dose): 6/6 | % T/C (P388 leukemia; Exp. 8109, iv, 0.4 mg/kg/dose): 100% | Avg. wt. change on day 6 (P388 leukemia; Exp. 8109, iv, 0.4 mg/kg/dose): -0.4 grams | Survivors on Day 5 (P388 leukemia; Exp. 8109, iv, 0.4 mg/kg/dose): 6/6 | % T/C (P388 leukemia; Exp. 8109, iv, 0.8 mg/kg/dose): 100% | Avg. wt. change on day 6 (P388 leukemia; Exp. 8109, iv, 0.8 mg/kg/dose): -0.3 grams | Survivors on Day 5 (P388 leukemia; Exp. 8109, iv, 0.8 mg/kg/dose): 6/6 | % T/C (P388 leukemia; Exp. 8109, iv, 1.6 mg/kg/dose): 100% | Avg. wt. change on day 6 (P388 leukemia; Exp. 8109, iv, 1.6 mg/kg/dose): -0.1 grams | Survivors on Day 5 (P388 leukemia; Exp. 8109, iv, 1.6 mg/kg/dose): 6/6 | % T/C (P388 leukemia; Exp. 8109, iv, 3.2 mg/kg/dose): 113% | Avg. wt. change on day 6 (P388 leukemia; Exp. 8109, iv, 3.2 mg/kg/dose): -0.2 grams | Survivors on Day 5 (P388 leukemia; Exp. 8109, iv, 3.2 mg/kg/dose): 6/6 | increases in lifespan (P388 leukemia; Exp. 8109, iv, at two dose levels evaluated): active increases | activity against disseminated iv implanted P388 leukemia (P388 leukemia; conclusion, when adequate dosage was administered): active against the disseminated iv implanted P388 leukemia model | MIC (P. vulgaris A21559): 0.13 µg/mL (≈ 0.0958 µM) | MIC (P. aeruginosa A20235): 0.13 µg/mL (≈ 0.0958 µM) | MIC (K. pneumoniae A9664): 1 µg/mL (≈ 0.737 µM) | MIC (E. faecalis A25708): 0.002 µg/mL (≈ 0.00147 µM) | MIC (E. faecalis A25707): 0.002 µg/mL (≈ 0.00147 µM) | MIC (P. aeruginosa A21508): 0.25 µg/mL (≈ 0.184 µM) | MIC (S. aureus A24407): 0.001 µg/mL (≈ 0.000737 µM) | MIC (E. faecalis A20688): 0.002 µg/mL (≈ 0.00147 µM) | MIC (K. pneumoniae A20468): 1 µg/mL (≈ 0.737 µM) | MIC (E. coli A20697): 0.25 µg/mL (≈ 0.184 µM) | MIC (S. aureus A9537): 0.001 µg/mL (≈ 0.000737 µM) | MIC (B. subtilis A9506-A): 0.001 µg/mL (≈ 0.000737 µM) | MIC (E. coli A15119): 0.25 µg/mL (≈ 0.184 µM) | MIC (P. aeruginosa A9843): 0.25 µg/mL (≈ 0.184 µM) | MIC (S. aureus A20698): 0.001 µg/mL (≈ 0.000737 µM) | MIC (E. coli A9751): 0.016 µg/mL (≈ 0.0118 µM)
